According to US20220267753A1, “RATIONAL THERAPEUTIC TARGETING OF ONCOGENIC IMMUNE SIGNALING STATES IN MYELOID MALIGNANCIES VIA THE UBIQUITIN CONJUGATING ENZYME UBE2N” (CHILDREN'S HOSPITAL MEDICAL CENTER, priority 2019, published 2022):

Legend:
THP-1 cells = assay: Colony formation assay of THP-1 cells with shControl or shUBE2N; format: cell-based, human
Excerpt: For knockdown studies, UBE2N shRNA template oligonucleotides from the TRC shRNA library cloned into the pLKO.1 TRC cloning vector (Addgene: #10878) and pLKO.1 TRC cloning vector (Table 3). The puromycin gene in pLKO.1 was replaced with GFP. pLKO.1 TRC control was used as non-silencing control (Addgene: #10879). For production of lentiviral particles, lentiviral shRNA expression constructs were transfected together with packaging vectors into 293T producer cells using TransIT transfection reagent (Mirus, MIR 2306), supernatants were harvested after 48 and 72 hours, and concentrated by ultracentrifugation. […] UBE2N knockdown efficiency was determined by quantitative real time PCR (qRT-PCR) and western blot and quantified as described elsewhere. […] Levels of overexpression of UBE2N were determined by western blot.
In order to determine viability after UBE2N knockdown or inhibition, 1×10^6 AML cells were washed with PBS and mixed with pre-diluted APC-conjugated Annexin V (BD Pharmigen, Franklin Lakes, N.J.) and Propidium iodide (PI) (Invitrogen ThermoFisher 00-6990-42, Waltham, Mass.). […] Colonies were scored after 7 days in culture. […] Colonies were scored at 7 days. […] Colonies were manually scored at 14-16 days after plating or counted with STEMVision (StemCell Technologies, Vancouver, CA).

MOLM-13 cells = assay: MOLM-13 xenograft in NSG mice; format: in vivo; conditions: 2 mg/kg i.p.
Protocol: Lentivirally-infected MOLM-13 cells or HL-60 cells (1.9×10^4 cells per recipient) expressing a non-silencing control shRNA or UBE2N specific shRNAs were tail vein transplanted into sublethally irradiated NOD-scid IL2Rγ^−/− (NSG) mice (250 rads whole body irradiation). Moribund mice were sacrificed and assessed for leukemic burden measurements. BM and spleen cells were analyzed for GFP expression by flow cytometry using a BD FACS Canto System (BD Biosciences, San Jose, Calif.). Bone marrow aspirates were taken 2 weeks after transplantation for smears or to assess engraftment by flow cytometry. For survival analysis after UBE2N inhibitors treatment, NSG mice (n=10/group) were injected with 1×10^4 MOLM-13 cells and treated with 4 doses of 2 mg/kg/d of UC-764865, or vehicle control (0.2% tween 20 in water) for 2 weeks (8 doses total). Time of death was recorded, and Kaplan Meier survival analysis was performed using GraphPad Prism version 7.00 for Mac (GraphPad Software, La Jolla Calif. USA). Engraftment was assessed in bone marrow (BM) at one week after transplantation by flow cytometric determination of human CD33 (BDPharmingen 555450, Franklin Lakes, N.J.), human CD45 and/or human CD15. Briefly, mice were euthanized with carbon dioxide following the AVMA Guidelines for the Euthanasia of Animals and BM cells were immediately extracted by breaking the femurs with a mortar and pestle. Red blood cells were lysed with RBC lysis buffer (555899 BD Biosciences) and washed twice with Phosphate-Buffered Saline (PBS) (Dulbecco's 45000-446 (PK)), 2% Fetal Bovine Serum (FBS). 1×10^6 cells were stained with human CD33 (BDPharmighen 555450), murine CD45 (BDPharmighen 557659) by incubating in PBS, 0.2% FBS for 30 minutes on ice in the dark. After staining the cells were washed once with PBS and resuspended in incubation buffer with propidium iodine. Cells were analyzed using a BD FACS Canto System (BD Biosciences, San Jose, Calif.). Alternatively, 1×10^4 MOLM-13 cells were xenotransplanted in NSG mice without conditioning (n=10/group). Treatment with UBE2N inhibitors was started one day after transplant for […] (5 days dosing of 2 mg/kg/d, resting 2 days, 2 days dosing of 2 mg/kg/d) by intraperitoneal injections (IP). All the mice were sacrificed at day 10 post transplantation and engraftment of MOLM-13 cells was analyzed in spleen and BM by staining for human CD15 (BDPharmighen 551376) as described above. For patient-derived xenografts (PDX), 1×106 to 6×10^6 cells were transplanted via tail vain in NSGS mice conditioned with busulfan (final dose of 30 mg/kg) 24 hours prior to transplantation. Treatment with UC-764865 was started 3 days after transplantation with 5 weekly doses of 25 mg/kg UC-764865 or vehicle control (methyl-β-cyclodextrin, 50 mg/ml) via LP during a period of 2-6 weeks. BM aspirates were performed once a week and determination of engraftment was performed as described above.

SMILES	leukemic colony formation of THP-1 cells following knockdown of UBE2N (THP-1 cells)	leukemic progenitor function (colony formation) of THP-1-shControl cells (THP-1 cells)	onset of leukemia (MOLM-13 cells; 4 doses/week for 2 weeks, vehicle 8 days) [days]	overall median survival (MOLM-13 cells; 4 doses/week for 2 weeks, vehicle 17 days, P<0.0001) [days]	reduction of leukemic burden (percent of human CD15+ cells) in BM (MOLM-13 cells; 7 doses, day 10 post transplantation, P=0.03) [%]	reduction of leukemic burden (percent of human CD15+ cells) in spleen (MOLM-13 cells; 7 doses, day 10 post transplantation, P=0.3) [%]	spleen weight at time of death (MOLM-13 cells; vehicle 63±29 mg, P=0.0001) [mg]	reduction of splenomegaly at time of death (MOLM-13 cells; vs vehicle) [%]
CCc1ccc(C(=O)C=CSc2nc3ccc(C)cc3[nH]2)cc1 [UC-764864, 1-(4-ethylphenyl)-3-[(6-methyl-1H-benzimidazol-2-yl)sulfanyl]prop-2-en-1-one]	did not significantly further suppress	significantly repressed	–	–	–	–	–	–
COc1ccc(C(=O)C=CSc2nc3ccc(C)cc3[nH]2)cc1 [UC-764865, 1-(4-methoxyphenyl)-3-[(6-methyl-1H-benzimidazol-2-yl)sulfanyl]prop-2-en-1-one]	–	–	18	21	40	70	18 ± 6	80
